Read-outs that look alike come from different tables or passages of the source.
Tests used:
human Pol II = biological target: T1, human Pol II (Homo sapiens, UniProt P24928+P30876); assay: RNA polymerase II counterscreen, human pol II; format: biochemical; details: read-out: IC50 Human pol II
T1 construct: Pol II was isolated from Aspergillus nidulans, Saccharomyces cerevisiae, and human cells; endogenous in cells; enzyme isolated from them
Method: Pol II was isolated from Aspergillus nidulans, Saccharomyces cerevisiae, and human cells (FIG. 5) and used in secondary screens for fungal spectrum and specificity. Pol I and Pol III were isolated from Candida albicans and used as an additional mechanism to study specificity. Confirmed hits form the primary assay and were evaluated against this panel of polymerases. Agents with activity against Pol II from multiple fungal enzymes but not against the human counterpart were evaluated in vitro against fungal pathogens.

[1] = biological target: T2, C. albicans RNA polymerase II (Candida albicans, UniProt A0A1D8PUA6+Q5A8Y5); assay: biochemical; details: for IC50: read-out: IC50 Candida pol II; for inhibition at 20 µM: screening of azo library
T2 construct: RNA elongation assay on calf thymus DNA
T2 sequence (A0A1D8PUA6 1-1728): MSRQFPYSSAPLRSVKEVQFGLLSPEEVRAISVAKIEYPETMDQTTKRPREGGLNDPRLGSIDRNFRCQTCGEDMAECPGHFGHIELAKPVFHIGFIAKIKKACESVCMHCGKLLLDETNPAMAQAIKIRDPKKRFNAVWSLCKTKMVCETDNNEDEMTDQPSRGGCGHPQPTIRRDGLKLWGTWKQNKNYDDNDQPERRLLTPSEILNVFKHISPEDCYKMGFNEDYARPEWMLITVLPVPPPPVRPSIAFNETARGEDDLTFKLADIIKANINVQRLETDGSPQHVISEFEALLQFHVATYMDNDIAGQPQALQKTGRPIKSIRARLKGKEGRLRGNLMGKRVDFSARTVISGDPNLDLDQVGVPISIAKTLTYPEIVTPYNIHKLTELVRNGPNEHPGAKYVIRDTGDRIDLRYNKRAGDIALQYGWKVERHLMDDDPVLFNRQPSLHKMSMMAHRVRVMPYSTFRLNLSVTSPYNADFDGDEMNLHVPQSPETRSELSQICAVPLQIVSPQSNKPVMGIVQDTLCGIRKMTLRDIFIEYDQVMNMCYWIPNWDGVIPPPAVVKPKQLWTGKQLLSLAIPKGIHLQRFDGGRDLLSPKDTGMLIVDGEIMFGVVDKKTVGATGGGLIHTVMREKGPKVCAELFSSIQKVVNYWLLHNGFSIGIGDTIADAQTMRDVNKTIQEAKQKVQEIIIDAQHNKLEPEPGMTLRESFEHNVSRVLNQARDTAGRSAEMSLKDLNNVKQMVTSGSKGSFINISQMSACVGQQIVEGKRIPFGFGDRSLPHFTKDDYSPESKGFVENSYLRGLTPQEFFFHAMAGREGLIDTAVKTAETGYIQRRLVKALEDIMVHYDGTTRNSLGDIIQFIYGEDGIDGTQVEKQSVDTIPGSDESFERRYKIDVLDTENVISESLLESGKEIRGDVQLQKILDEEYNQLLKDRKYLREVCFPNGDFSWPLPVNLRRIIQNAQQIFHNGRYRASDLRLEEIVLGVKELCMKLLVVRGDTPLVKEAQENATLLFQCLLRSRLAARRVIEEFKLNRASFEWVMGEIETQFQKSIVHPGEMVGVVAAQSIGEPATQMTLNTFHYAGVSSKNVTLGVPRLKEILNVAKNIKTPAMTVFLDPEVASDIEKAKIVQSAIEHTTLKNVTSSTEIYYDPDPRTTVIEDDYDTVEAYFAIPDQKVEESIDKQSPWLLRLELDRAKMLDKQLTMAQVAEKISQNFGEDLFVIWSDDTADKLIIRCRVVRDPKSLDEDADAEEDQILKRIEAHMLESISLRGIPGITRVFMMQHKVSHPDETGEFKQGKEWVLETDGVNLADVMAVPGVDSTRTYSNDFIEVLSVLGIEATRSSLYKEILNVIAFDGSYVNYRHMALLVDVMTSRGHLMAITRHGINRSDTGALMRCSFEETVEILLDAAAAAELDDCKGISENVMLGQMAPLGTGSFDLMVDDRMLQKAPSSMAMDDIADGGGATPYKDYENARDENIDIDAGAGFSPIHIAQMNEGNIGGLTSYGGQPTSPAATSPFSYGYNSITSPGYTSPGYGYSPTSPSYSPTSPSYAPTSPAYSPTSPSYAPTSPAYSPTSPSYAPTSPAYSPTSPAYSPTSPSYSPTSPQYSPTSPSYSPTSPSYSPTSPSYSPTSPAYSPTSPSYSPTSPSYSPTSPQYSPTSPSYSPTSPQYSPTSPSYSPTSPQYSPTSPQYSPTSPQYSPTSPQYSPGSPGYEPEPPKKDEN
T2 sequence (Q5A8Y5 1-1234): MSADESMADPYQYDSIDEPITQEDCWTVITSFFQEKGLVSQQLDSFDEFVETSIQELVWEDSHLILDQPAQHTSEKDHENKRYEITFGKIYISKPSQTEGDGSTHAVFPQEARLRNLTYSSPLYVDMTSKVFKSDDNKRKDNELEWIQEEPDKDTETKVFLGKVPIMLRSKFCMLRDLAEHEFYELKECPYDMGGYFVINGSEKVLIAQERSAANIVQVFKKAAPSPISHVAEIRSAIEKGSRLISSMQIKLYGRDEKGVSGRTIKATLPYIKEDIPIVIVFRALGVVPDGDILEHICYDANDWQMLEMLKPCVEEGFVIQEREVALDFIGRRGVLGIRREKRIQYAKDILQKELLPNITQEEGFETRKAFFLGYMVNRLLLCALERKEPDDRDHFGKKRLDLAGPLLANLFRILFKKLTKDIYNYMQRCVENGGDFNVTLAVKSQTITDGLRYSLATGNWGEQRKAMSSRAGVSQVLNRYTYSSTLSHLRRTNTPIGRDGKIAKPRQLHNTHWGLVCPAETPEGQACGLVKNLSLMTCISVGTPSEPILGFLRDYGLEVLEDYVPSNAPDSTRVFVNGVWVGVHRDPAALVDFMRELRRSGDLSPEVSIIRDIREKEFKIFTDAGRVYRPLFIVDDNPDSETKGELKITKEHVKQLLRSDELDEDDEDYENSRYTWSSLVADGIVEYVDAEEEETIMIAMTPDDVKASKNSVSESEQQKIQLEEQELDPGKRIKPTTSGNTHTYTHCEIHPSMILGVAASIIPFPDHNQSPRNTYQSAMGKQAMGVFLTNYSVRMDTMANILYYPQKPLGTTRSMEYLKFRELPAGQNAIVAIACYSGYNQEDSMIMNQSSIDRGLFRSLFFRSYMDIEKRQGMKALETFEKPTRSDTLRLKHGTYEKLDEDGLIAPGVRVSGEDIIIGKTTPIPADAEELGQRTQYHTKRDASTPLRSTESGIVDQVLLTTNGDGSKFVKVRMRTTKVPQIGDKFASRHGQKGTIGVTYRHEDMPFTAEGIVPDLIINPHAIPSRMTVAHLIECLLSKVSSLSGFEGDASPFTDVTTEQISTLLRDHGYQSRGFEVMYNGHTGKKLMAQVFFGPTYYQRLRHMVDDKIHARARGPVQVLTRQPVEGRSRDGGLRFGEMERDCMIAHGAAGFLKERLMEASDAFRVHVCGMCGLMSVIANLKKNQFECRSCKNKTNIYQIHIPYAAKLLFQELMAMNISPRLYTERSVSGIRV
Method: The following procedure is used for cell-free high-throughput screening. A Tomtec Quadra 96-well pipetting station is used to add the reaction components to polypropylene 96-well dishes. 5 μl aliquots of test compounds dissolved in DMSO (or DMSO alone as a control) are added to wells. This is followed by 20 μl of the RNA polymerase II mixture, which consists of: 10 mM DTT, 200 mM KCl, 10 mM Mn^+2, 1.5 μM bovine serum albumin, and 0.25 μg reconstituted RNA polymerase. After allowing the test compound to interact with the RNA polymerase, 25 μl of the DNA/NTP mixture is added, containing: 1 μg calf thymus DNA, 4 μM [α-^32 P]-UTP, and 400 μM each CTP, ATP, and GTP.
After incubation for 60 min at 30 C, the reaction is stopped by addition of 50 μl 15% trichloroacetic acid (TCA). The TCA-precipitated RNA is adsorbed onto double-thick glass fiber filtermats using a Tomtec cell harvester. The wells of the microtiter plate and the filter are washed twice with 5% TCA and bound radioactivity is determined using a Wallac microbeta 1450 scintillation counter.
Inhibitory activity due to the test compound is calculated according to the formula: [formula] where cpmpositive control represents the average of the cpm in wells that received DMSO alone, and cpmsample represents the cpm in the well that received test compound. Compounds that cause at least 50% inhibition are scored as positive "hits" in this assay.
DNA-directed RNA polymerase II from Candida albicans was purified in sufficient quantity to support high throughput screening of large synthetic chemical and natural product libraries. A biochemical mechanism-based screen for detecting inhibitors of Pol II was developed and implemented. The screen is outlined in FIGS. 4A and 4B.

Question: Which results are given for O=C(Nc1ccc(O)cc1)c1cccc(C(F)(F)F)c1 [CONH]?
Answer: IC50 (human Pol II; Table 1): 500 µM; IC50 ([1]; Table 1): 51 µM

Question: O=C(O)CN(CCN(CC(=O)O)CC(=O)O)CC(=O)O [EDTA, reference compound] was tested. Which inhibition at 10 µM ([1]; 1 h, read-out: inhibition of transcription) did it give?
Answer: ≥ 90%

Question: COCOc1ccc(C=Cc2cccc(C(F)(F)F)c2)cc1 [Compound 25, 4-[-2-[3-(trifluorometbyl)phenyl]ethenyl]-methoxymethoxyl phenyl] was tested. Which IC50 (human Pol II; Table 2) did it give?
Answer: > 2000 µM

Question: What about the IC50 ([1]; Table 2) of the same molecule?
Answer: > 2000 µM

Question: N#Cc1cc(N=Nc2cccc(C(F)(F)F)c2)ccc1O [Compound 18, 4-[-2-[3-(trifluoromethyl)phenyl]diazenyl]-2-cyano-phenol] was tested. Which inhibition at 20 µM [1] did it give?
Answer: 37%

Question: Which results are given for Oc1ccc(C=Cc2cccc(C(F)(F)F)c2)cc1Br [Compound 26, 4-[-2-[3-(trifluoromethyl)phenyl]ethenyl]-2-bromo-phenol]?
Answer: IC50 (human Pol II; Table 2): 84 µM; IC50 ([1]; Table 2): 42 µM

Question: Which results are given for O=Cc1cc(/N=N/c2cccc(C(F)(F)F)c2)ccc1O [Compound 10, 5-[(E)-2-[3-(trifluoromethyl)phenyl]diazenyl]-2-hydroxy-benzaldehyde]?
Answer: IC50 (human Pol II; Table 2): 82 µM; IC50 ([1]; Table 2): 34 µM

Question: With N#Cc1cc(O)ccc1N=Nc1cccc(C(F)(F)F)c1 [Compound 20, 4-[-2-[3-(trifluoromethyl)phenyl]diazenyl]-3-cyano-phenol] as the molecule, how does the inhibition at 20 µM [1] read?
Answer: 28%

Question: O=C(Nc1cccc(C(F)(F)F)c1)c1ccc(O)cc1 [Compound 30, 4-hydroxy-N-[3-(trifnuoromethyl)phenyl]benzamide] was tested. Which IC50 (human Pol II; Table 1) did it give?
Answer: 82 µM

Question: What about the IC50 ([1]; Table 1) of the same molecule?
Answer: 27 µM

Question: For Oc1ccc(N=Nc2cc(C(F)(F)F)cc(C(F)(F)F)c2)cc1 [Compound 16, 4-[-2-[3,5-(di-trifluoromethyl)phenyl]diazenyl]phenol], which inhibition at 20 µM [1] is on record?
Answer: 28%

Question: Which inhibition at 20 µM [1] does the source give for O=[N+]([O-])c1cc(O)ccc1N=Nc1cccc(C(F)(F)F)c1 [Compound 23, 4-[-2-[3-(trifluoromethyl]phenyl)diazenyl]-3-nitro-phenol] here?
Answer: 37%

Question: What does the source list for “4-[-2-[3-(trifluoromethyl)phenyl]diazenyl]-2-hydroxy-phenol [Compound 4]”?
Answer: IC50 (human Pol II; Table 2): 230 µM; IC50 ([1]; Table 2): 70 µM

Question: Which inhibition at 20 µM [1] does the source give for Oc1ccc(N=Nc2cccc(C(F)(F)F)c2F)cc1 [Compound 13, 4-[-2-[2-fluoro-3-(trifluoromethyl)phenyl]diazenyl]phenol] here?
Answer: 38%

Question: Which inhibition at 20 µM [1] does the source give for Oc1ccc(N=Nc2cccc(Cl)c2)cc1 [Compound 11, 4-[-2-[3-(chloro)phenyl]diazenyl]phenol] here?
Answer: 50%

Question: How did the IC50 (human Pol II; Table 2) turn out when O=[N+]([O-])c1cc(N=Nc2cccc(C(F)(F)F)c2)ccc1O [Compound 8, 4-[-2-[3-(trifluoromethyl)phenyl]diazenyl]-2-nitrophenol] was run?
Answer: > 2000 µM

Question: And the IC50 ([1]; Table 2)?
Answer: 103 µM

Question: How did the inhibition at 20 µM [1] turn out when Oc1ccc(N=Nc2ccc(F)c(C(F)(F)F)c2)cc1 [Compound 14] was run?
Answer: 42%

Question: With COc1cc(N=Nc2ccc(O)cc2)cc(C(F)(F)F)c1 [Compound 17] as the molecule, how does the inhibition at 20 µM [1] read?
Answer: 53%

Question: What does the source list for OB(O)c1cc(C=Cc2cccc(C(F)(F)F)c2)ccc1O [Compound 27]?
Answer: IC50 (human Pol II; Table 2): 136 µM; IC50 ([1]; Table 2): 58 µM

Question: How did the inhibition at 20 µM [1] turn out when Cc1cc(O)ccc1N=Nc1cccc(C(F)(F)F)c1 [Compound 22, 4[-2-[3-(trifluoromethyl)phenyl]diazenyl]-3-methyl-phenol] was run?
Answer: 42%

Question: With O=C(Nc1cccc(C(F)(F)F)c1)c1ccc(OCc2ccccc2)cc1 [Compound 29, 4-benzoxy-N-[3-(trifluoromethyl)phenyl]benzamide] as the molecule, how does the IC50 (human Pol II; Table 2) read?
Answer: > 2000 µM

Question: And the IC50 ([1]; Table 2)?
Answer: > 2000 µM

Question: How did the inhibition at 20 µM [1] turn out when Oc1ccc(N=Nc2cc(C(F)(F)F)ccc2F)cc1 [Compound 15, 4-[-2-[6-fluoro-3-(trifluoromethyl)phenyl]diazenyl]phenol] was run?
Answer: 39%

Question: For OCc1cc(N=Nc2cccc(C(F)(F)F)c2)ccc1O [Compound 19, 4-[-2-[3-(tnfluoromethyl)phenyl]diazenyl]-2-(hydroxymethyl)-phenol], which inhibition at 20 µM [1] is on record?
Answer: 33%

Question: Which inhibition at 20 µM [1] does the source give for OCc1cc(O)ccc1N=Nc1cccc(C(F)(F)F)c1 [Compound 21, 4-[-2-[3-(trifluoromethyl)phenyl]diazenyl]-3-(hydroxymethyl)-phenol] here?
Answer: 39%

Question: With O=[N+]([O-])c1cccc(N=Nc2ccc(O)cc2)c1 [Compound 12, 4-[-2-[3-(nitro)phenyl]diazenyl]phenol] as the molecule, how does the inhibition at 20 µM [1] read?
Answer: 45%

From US6165998A, “Antifungal agents” (Scriptgen Pharmaceuticals, Inc., priority 1998, dated 2000)
